Like-named read-outs stand apart in the source and are kept apart here.
Assays:
[1] = target: T1, DPV pUL15FL (full-length pUL15) (anatid alphaherpesvirus 1, UniProt C6ZD26); type: biochemical
T1 construct: gene UL15

[2] = target: T2, pUL15N (N-terminus domain of DPV pUL15) (anatid alphaherpesvirus 1, UniProt C6ZD26); details: 1 mM ATP, 2 µM protein, 2 mM MgCl2, 50 mM NaCl, pH 7.5, 37 °C
T2 construct: gene UL15

Row | SMILES | malachite green phosphate release [1] | malachite green phosphate release ([1]; 1 mM ATP, 2 mM MgCl2, 50 mM NaCl, pH 7.5, 37 °C) | malachite green phosphate release [2]
1 | Nc1ncnc2c1ncn2[C@@H]1O[C@H](COP(=O)(O)OP(=O)(O)O)[C@@H](O)[C@H]1O [ADP] | DPV pUL15FL hydrolyzes both ATP and ADP | – | –
2 | Nc1ncnc2c1ncn2[C@@H]1O[C@H](COP(=O)(O)OP(=O)(O)OP(=O)(O)O)[C@@H](O)[C@H]1O [ATP] | – | DPV pUL15FL hydrolyzes both ATP and ADP | the pUL15N exhibited ATPase activity like pUL15FL, whereas pUL15C did not
